Here are results for 19 compounds from patent US11839212B2, “Synergistic pesticidal compositions and methods for delivery of insecticidal active ingredients” (0903608 B.C. Ltd., priority 2018, dated 2023).

As usually defined, the MIC is the lowest concentration found to suppress growth.

Like-named read-outs stand apart in the source and are kept apart here.

What all share (experiment): Synergistic Growth Inhibition Assay (MIC and FIC index, 96-well, resazurin)
Holding throughout (assay type): cell-based
(The colour change of resazurin is a common sign of viable cells or microbes.)

Test [1] has as its system Botrytis cinerea. To be noted: for MIC: Botrytis cinerea, 48 h. As for the experimental part:
(§1) In some embodiments, the synergistic action between the pesticidal active ingredient, and the at least one C6-C10 (or alternatively C11 or C12) saturated or unsaturated aliphatic acid components of the pesticidal compositions according to embodiments of the present disclosure was tested using a Synergistic Growth Inhibition Assay, which is derived from and related to a checkerboard assay as is known in the art for testing of combinations of antimicrobial agents. In the Synergistic Growth Inhibition Assay used in accordance with some embodiments of the present disclosure, multiple dilutions of combinations of pesticidal active ingredient and at least one C6-C10 saturated or unsaturated aliphatic acid agents are tested in individual cells for inhibitory activity against a target pest or pathogenic organism. In one such embodiment, the combinations of pesticidal active ingredient and C6-C10 (or alternatively C11 or C12) saturated or unsaturated aliphatic acid agents may preferably be tested in decreasing concentrations. In a further such embodiment, the combinations of pesticidal active ingredient and C6-C10 (or alternatively C11 or C12) saturated or unsaturated aliphatic acid agents may be tested in increasing concentrations. These multiple combinations of the pesticidal active ingredient and at least one C6-C10 (or alternatively C11 or C12) saturated or unsaturated aliphatic acid agents may be prepared in 96-well microtiter plates. In one such embodiment, the Synergistic Growth Inhibition Assay then comprises rows which each contain progressively decreasing concentrations of the pesticidal active ingredient and one or more C6-C10 (or alternatively C11 or C12) saturated or unsaturated aliphatic acid agents to test for the MIC of the agents in combination at which growth of the target pest or pathogen is inhibited. Thus, each well of the microtiter plate is a unique combination of the two agents, at which inhibitory efficacy of the combination against the target pest or pathogen can be determined.
(§2) In one embodiment according to the present disclosure, for each row of microtiter cells in the Synergistic Growth Inhibition Assay, the FIC index is calculated from the lowest concentration of the pesticidal active ingredient and one or more C6-C10 saturated or unsaturated aliphatic acid agents necessary to inhibit growth of a target pest or pathogen. The FIC of each component is derived by dividing the concentration of the agent present in that well of the microtiter plate by the minimal inhibitory concentration (MIC) needed of that agent alone to inhibit growth of the target pest or pathogen. The FIC index is then the sum of these values for both agents in that well of the microtiter plate. […] Fractional inhibitory concentration indices may then used as measure of synergy. […] When the FIC index is equal to 1, the combination is additive.
(§3) Then, serial dilutions of these initial compositions in successive wells in the row of the microtiter plate were used to assay the pesticidal composition under the same conditions to determine the concentration of the composition combining the two agents corresponding to the microtiter well in which growth inhibition of the target pest or organism ceases.
Similarly to as described above, Resazurin was used as an indicator of growth or inhibition of growth of Botrytis cinerea in the exemplary Synergistic Growth Inhibition Assay. In addition to the color change of the resazurin, an optical or visual examination of the microtiter well may also be made to additionally determine the presence of growth or inhibition of growth of the Botrytis cinerea.

The test system of test [2] is Fusarium oxysporum. As to conditions: Fusarium oxysporum, Compound B alone. On the procedure:
as §1, §2, §3
Resazurin dye (also known as Alamar blue dye) was used as an indicator to determine the presence of growth or inhibition of growth of Fusarium oxysporum in the wells of the 96 well microtiter plates used in the exemplary Synergistic Growth Inhibition Assay. In addition to the color change of the resazurin dye in the presence of growth of the Fusarium oxysporum, an optical or visual examination of the microtiter well may also be made to additionally determine the presence of growth or inhibition of growth of the Fusarium oxysporum.

Test [3] has as its system Sclerotinia sclerotiorum. As to conditions: for MIC: Sclerotinia sclerotiorum. As for the experimental part:
as §1, §2, §3
Similarly to as described above, Resazurin was used as an indicator of growth or inhibition of growth of Sclerotinia sclerotiorum in the exemplary Synergistic Growth Inhibition Assay. In addition to the color change of the resazurin, an optical or visual examination of the microtiter well may also be made to additionally determine the presence of growth or inhibition of growth of the Sclerotinia sclerotiorum.

Where [4] appears, read: Table 51, Compound B alone, 48 hours incubation, read-out: MIC (B).
[5] abbreviates: Table 56, Compound B alone, 48 hours incubation, read-out: MIC (B).
Setting [6] is: Table 59, Compound B alone, 48 hours incubation, read-out: MIC (B).
[7] abbreviates: 48 h, Table 27, 48 hours incubation, read-out: MIC (B).
Setting [8] is: 48 h, Table 30, 48 hours incubation, read-out: MIC (B).
Where [9] appears, read: Table 20B, Compound A alone, incubation 7 days, read-out: MIC (A).
Where [10] appears, read: Table 24, Compound B alone, 48 hours incubation, read-out: MIC (B).
Where [11] appears, read: Table 25, Compound B alone, 48 hours incubation, read-out: MIC (B).
The mark [12] stands for this setting: Table 26, Compound B alone, 48 hours incubation, read-out: MIC (B).
Setting [13] is: Table 54, Compound B alone, 48 hours incubation, read-out: MIC (B).

As to `CCCCCCC(C)C(=O)O` (stereo not drawn) [2-Methyloctanoic acid], the results for the MIC in test [1] (setting [4]), in test [1] (setting [5]) and in test [1] (setting [6]) were 39.1 µg/mL, 312 µg/mL and 78.1 µg/mL, respectively.
The like results for `CCCCCCCCC(C)C(=O)O` (stereo not drawn) [2-Methyldecanoic acid] were, in that order, 7.81 µg/mL, 125 µg/mL and 125 µg/mL.
Take `CC=CCCC(=O)O` [4-Hexenoic acid]: the MIC was 312 µg/mL in test [2] (setting [7]); 312 µg/mL in test [2] (setting [8]); 312 µg/mL in test [1] (Table 43, Compound B alone, 48 hours incubation, read-out: MIC (B)); 312 µg/mL in test [1] (Table 45, Compound B alone, 48 hours incubation, read-out: MIC (B)).
Turning to `COCC(=O)N(c1c(C)cccc1C)C(C)C(=O)OC` (stereo not drawn) [Metalaxyl, reference compound], the MIC in test [1] (Table 23, Compound A alone, incubation 48 hours, read-out: MIC (A)) stood at 316 µg/mL; in test [1] (Table 26, Compound A alone, 48 hours incubation, read-out: MIC (A)), 316 µg/mL; in test [1] (Table 48, Compound A alone, 48 hours incubation, read-out: MIC (A)) it was 316 µg/mL; in test [3] (setting [9]), 1260 µg/mL.
On to `CCCCCCCCCCCC(=O)O` [Dodecanoic acid, dodecanoic acid], for which the MIC in test [1] (Table 21, Compound B alone, incubation 48 hours, read-out: MIC (B)) came to 25 µg/mL; in test [1] (setting [10]) it was 50 µg/mL; in test [1] (setting [11]) it was 50 µg/mL; in test [1] (setting [12]), 50 µg/mL; in test [1] (setting [13]), 50 µg/mL; in test [1] (setting [5]), 50 µg/mL. Besides, the MIC in test [3] (Table 16, Compound B alone, incubation 7 days, read-out: MIC (B)) amounted to 50 µg/mL; in test [3] (Table 17, Compound B alone, incubation 7 days, read-out: MIC (B)), 50 µg/mL; in test [3] (Table 18, Compound B alone, incubation 7 days, read-out: MIC (B)), 50 µg/mL; in test [3] (Table 20A, Compound B alone, incubation 7 days, read-out: MIC (B)), 25 µg/mL.
In the case of `CON=C(C(=O)OC)c1ccccc1CON=C(C)c1cccc(C(F)(F)F)c1` [Trifloxystrobin, reference compound], the MIC in test [1] (Table 58, Compound A alone, 48 hours incubation, read-out: MIC (A)) stood at 250 µg/mL; in test [1] (Table 59, Compound A alone, 48 hours incubation, read-out: MIC (A)) it was 250 µg/mL.
In the case of `CCCCCCCC/C=C\CCCCCCCC(=O)O` [(9Z)-octadecenoic acid], the “MIC (B)” value in test [1] (Table 49, Compound B alone, 48 hours incubation) was determined as 5000 µg/mL; in test [1] (Table 50, Compound B alone, 48 hours incubation) it was 5000 µg/mL; in test [3] (Table 33, Compound B alone, 7 days incubation), 5000 µg/mL.
As to `CCCCCCCCCC(=O)[O-].[K+]` [Decanoic acid, potassium salt, decanoic acid, potassium salt], the minimum inhibitory concentration (MIC) stood at 78.1 µg/mL in test [2] (24 h, read-out: MIC(B), Table 7, 24 hour incubation) and 78.1 µg/mL in test [2] (read-out: MIC (B), Table 8).
For the compound `CCCCCCCCCC(=O)O` [Decanoic acid, decanoic acid], the MIC in test [1] (Table 22, Compound B alone, incubation 48 hours, read-out: MIC (B)) was 78.1 µg/mL; in test [1] (setting [10]), 312 µg/mL; in test [1] (setting [11]) it was 15.6 µg/mL; in test [1] (setting [12]) it was 78.1 µg/mL; in test [1] (Table 52, Compound B alone, 48 hours incubation, read-out: MIC(B)) it was 15.6 µg/mL; in test [1] (setting [13]) it was 15.6 µg/mL.
Regarding `C/C=C/C=C/C(=O)[O-].[K+]` [(2E,4E)-2,4-hexadienoic acid, potassium salt], the MIC in test [2] (24 h, read-out: MIC (B), Table 2, 24 hour incubation) amounted to 625 µg/mL; in test [2] (24 h, read-out: MIC(B), Table 1, 24 hour incubation), 625 µg/mL.
On to `CCCC1COC(Cn2cncn2)(c2ccc(Cl)cc2Cl)O1` (stereo not drawn) [Propiconazole, reference compound], for which the MIC was 89 µg/mL in test [1] (Table 24, Compound A alone, 48 hours incubation, read-out: MIC (A)); 89 µg/mL in test [3] (Table 18, Compound A alone, incubation 7 days, read-out: MIC (A)); 89 µg/mL in test [3] (setting [9]); 89 µg/mL in test [3] (Table 39, Compound A alone, 7 days incubation, read-out: MIC (A)).
`CCCCCCC/C=C\C(=O)O` [Cis-2-decenoic acid]: the MIC in test [3] (Table 34, Compound B alone, 7 days incubation, read-out: MIC (B)) came to 19.5 µg/mL.
On to `CCCCCCCC/C=C\CCCCCCCC(=O)O` [Oleic acid], for which the MIC in test [1] (setting [13]) and in test [1] (setting [5]) was 5000 µg/mL throughout.
Consider `CCCCC/C=C/C(=O)O` [Trans-2-octenoic acid, trans-2-octenoic acid], for which the MIC in test [2] (24 h, Table 3, 24 hour incubation, read-out: MIC(B)) worked out at 149 µg/mL; in test [2] (24 h, Table 4, 24 hour incubation, read-out: MIC (B)), 149 µg/mL; in test [2] (setting [7]), 312 µg/mL; in test [2] (setting [8]) it was 156 µg/mL; in test [2] (48 h, Table 31, 48 hours incubation, read-out: MIC (B)) it was 156 µg/mL; in test [2] (48 h, Table 32, 48 hours incubation, read-out: MIC (B)), 312 µg/mL.
With `CCCCCCCCC(O)C(=O)O` (stereo not drawn) [2-Hydroxydecanoic acid], the MIC in test [1] (setting [6]) was 312 µg/mL.
Consider `CCC(CC)(CC)C(=O)O` [2,2-Diethylbutanoic acid], for which the MIC in test [1] (setting [4]) and in test [1] (setting [6]) was 250 µg/mL in each case.
With `CCCCC(O)C(=O)O` (stereo not drawn) [2-hydroxyhexanoic acid], the MIC in test [1] (setting [6]) worked out at 1250 µg/mL.
Turning to `Cc1cc(C(F)(F)F)nn1CC(=O)N1CCC(c2nc(C3=NOC(c4c(F)cccc4F)C3)cs2)CC1` (stereo not drawn) [Oxathiapiprolin, reference compound], the “MIC (A)” value in test [1] (Table 55, Compound A alone, 48 hours incubation) was 500 µg/mL.
With `O=C(O)CCCCCCCO` [8-Hydroxyoctanoic acid], the MIC in test [1] (read-out: MIC (B), Table 51, Compound B alone, 48 hours incubation) is 1250 µg/mL; in test [1] (read-out: MIC (B), Table 56, Compound B alone, 48 hours incubation), 2500 µg/mL; in test [1] (read-out: MIC (B), Table 59, Compound B alone, 48 hours incubation), 1250 µg/mL.
